Data taken from US20170196859A1, “PHARMACEUTICAL COMPOSITION COMPRISING PYRAZINE CARBOXAMIDE COMPOUND AS ACTIVE INGREDIENT” (Astellas Pharma Inc., priority 2014, published 2017).

Assays:
[1] = tested on: OCI-Ly10 subcutaneous xenograft; assay: Anti-tumor evaluation in OCI-Ly10 subcutaneous xenograft mouse model; format: in vivo; conditions: for tumor volume after 14 days: control 188 to 520 mm^3
Method: The human diffuse large B-cell lymphoma cell line OCI-Ly10 cells were subcutaneously implanted to a dorsal part of an immunodeficient mouse (NOD.CB 17-Prkdc scid/J, male, 4-week-old (Charles River Laboratories Japan, Inc.)) to prepare an OCI-Ly10 subcutaneous xenograft mouse model. To mice which were divided based on the tumor volumes, 0.5% methylcellulose (control group: 10 mL/kg/day, QD, po (n=4)) or the test compound B (test compound B-administered group: 30 or 100 mg/kg/day in 0.5% methylcellulose suspension, QD, po (n=4)) were administered. The change in the tumor volume was evaluated over time.

[2] = tested on: human acute megakaryocytic leukemia cell line CMK cells; assay: Proliferation inhibition, CMK cells (CellTiter-Glo); format: cell-based; conditions: 96 h, 4 days culture
Method: CMK is a cell line originated from human acute megakaryocytic leukemia and the activation of JAK 3 has been confirmed (Cancer Cell. 2006; 10:65-75). The human acute megakaryocytic leukemia cell line CMK cells (DSMZ, ACC392) cultured in RPMI1640 medium (Sigma) containing 20% bovine serum and 2 mM of glutamine were inoculated into 96 well plates. On the same day, DMSO solutions of the test compound B at final concentrations from 1 nM to 10 μM or only DMSO (DMSO group) were added thereto to culture the cells at 37° C. in 5% CO2 for 4 days. Thereafter, the cell number was measured using a cell counting reagent (CellTiter-Glo (registered trademark) Luminescent Cell Viability Assay (Promega)). The cell proliferation inhibition rate was calculated as the measured value in the DMSO group set as 0% inhibition and the measured value in the well only with the medium on which the cells have not been seeded set as 100% inhibition.

ITK kinase = biological target: T1, ITK kinase (Homo sapiens, UniProt Q08881); assay: ITK kinase inhibitory activity (Mobility Shift Assay); format: biochemical; conditions: ATP 1000 μM, read-out: inhibitory % against ITK kinase activity
T1 sequence (Q08881 1-620): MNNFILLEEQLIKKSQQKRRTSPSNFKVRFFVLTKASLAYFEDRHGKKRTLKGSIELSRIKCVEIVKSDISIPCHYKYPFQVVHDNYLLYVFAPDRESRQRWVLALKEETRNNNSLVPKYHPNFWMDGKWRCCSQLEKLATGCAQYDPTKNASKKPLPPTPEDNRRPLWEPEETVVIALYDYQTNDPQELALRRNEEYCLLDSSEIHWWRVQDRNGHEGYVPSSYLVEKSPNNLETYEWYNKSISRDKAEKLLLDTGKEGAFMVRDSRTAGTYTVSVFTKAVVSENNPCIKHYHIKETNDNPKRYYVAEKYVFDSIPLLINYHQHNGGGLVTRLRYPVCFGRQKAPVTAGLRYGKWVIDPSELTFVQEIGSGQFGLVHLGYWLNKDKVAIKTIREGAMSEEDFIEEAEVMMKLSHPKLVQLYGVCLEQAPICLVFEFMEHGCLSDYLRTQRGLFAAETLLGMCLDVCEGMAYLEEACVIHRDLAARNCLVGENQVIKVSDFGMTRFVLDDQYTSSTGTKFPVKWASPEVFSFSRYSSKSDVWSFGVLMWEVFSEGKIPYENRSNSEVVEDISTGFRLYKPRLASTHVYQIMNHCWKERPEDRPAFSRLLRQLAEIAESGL
Method: The ITK kinase inhibitory activity was evaluated using Mobility Shift Assay system.
The test compound B was dissolved in dimethyl sulfoxide (DMSO) to prepare a solution at a 100-fold concentration as compared to the test concentration. The solution was also 25-fold diluted with an assay buffer (20 mM HEPES, 0.01% Triton X-100, 1 mM DTT, pH 7.5) to obtain a test substance solution.
5 μL of the test compound B solution at a 4-fold concentration, prepared using the aforementioned assay buffer, and 10 μL of a ITK kinase solution at a 2-fold concentration were mixed within a well of a 384 well plate, and incubated at room temperature for 30 minutes. Continuously, 5 μL of a substrate peptide (Srctide, PEPTIDE INSTITUTE, INC. #AD-995)/ATP/MgCl2 solution at a 4-fold concentration was added thereto to perform the reaction at room temperature for 1 hour. The substrate peptide was used at a final concentration of 1000 nM, ATP at a final concentration of 1000 μM, and MgCl2 at a final concentration of 5 mM. Thereafter, 60 μL of a termination buffer (127 mM HEPES, 0.01% Triton X-100, 26.7 mM EDTA, 1% DMSO, pH 7.5) was added thereto to stop the reaction. The ITK kinase activity was calculated by quantifying a product conversion ratio obtained from the substrate peptide peak height and the product (phosphorylated substrate peptide) peak height with LabChip3000 (PerkinElmer). […]

[3] = tested on: human acute T cell lymphoma cell line Jurkat 6.1E cells; assay: Proliferation inhibition, Jurkat 6.1E cells (CellTiter-Glo); format: cell-based; conditions: 96 h, 4 days culture
Method: Jurkat 6.1E is a cell line originated from human acute T cell lymphoma and the ITK expression has been confirmed (Mol. Pharmacol. 2012; 82:938-947). The human acute T cell lymphoma cell line Jurkat 6.1E cells (European Collection of Cell Cultures, 88042803) cultured in RPMI1640 medium (Sigma) containing 10% bovine serum were seeded into 96 well plates. On the same day, DMSO solutions of the test compound B at a final concentrations from 1 nM to 10 μM or only DMSO (DMSO group) were added thereto to culture the cells at 37° C. in 5% CO2 for 4 days. Thereafter, the cell number was measured using a cell counting reagent (CellTiter-Glo (registered trademark) Luminescent Cell Viability Assay (Promega)). The cell proliferation inhibition rate was calculated as the measured value in the DMSO group set as 0% inhibition and the measured value in the well only with the medium on which the cells have not been inoculated set 100% inhibition.

IC50 [2]: 110 nM
inhibition at 0.001 µM (ITK kinase; 1 nM test compound): 29.5%
inhibition at 0.01 µM (ITK kinase; 10 nM test compound): 92.6%
IC50 [3]: 940 nM
SMILES: C=CC(=O)N1CC[C@@H](Oc2nc(Nc3ccc(N4CCC(N5CCN(C)CC5)CC4)cc3)c(C(N)=O)nc2CC)C1 [test compound B, 5-{[(3R)-1-acryloylpyrrolidin-3-yl]oxy}-6-ethyl-3-({4-[4-(4-methylpiperazin-1-yl)piperidin-1-yl]phenyl}amino)pyrazine-2-carboxamide monomethanesulfonate]
tumor volume after 14 days ([1]; 30 mg/kg/day QD po, 190 mm^3 at start of administration): 50 mm^3
tumor volume after 14 days ([1]; 100 mg/kg/day QD po, 184 mm^3 at start of administration): 22 mm^3
antitumor activity in OCI-Ly10 xenograft mouse model ([1]; summary statement, 30 and 100 mg/kg/day): remarkable antitumor activity with regression in a dose-dependent manner
